What was measured:
[1] = tested on: Saccharomyces cerevisiae cells; assay: Recovery of yeast cells on compound-free YPD agar after treatment (cytocidal vs cytostatic); assay type: cell-based; conditions: 21 µM for 24 h, then transfer to hypoculoside-free YPD agar plates
Method: We evaluated the potency of hypoculoside by examining its effect on the growth of Candida albicans strain (SC5314) using the Clinical and Laboratory Standards Institute (CLSI) guidelines. We used the well-known antifungal amphotericin B as a positive control. We exposed logarithmically growing Candida albicans cells to hypoculoside and amphotericin B at various concentrations and monitored the growth by recording the OD600 nm after 24 hours. […] We also tested the effect of hypoculoside on the growth of the Saccharomyces cerevisiae strain (BY4743). […] To test whether hypoculoside has cytocidal or cytostatic activity, we examined the ability of Saccharomyces cerevisiae cells to recover following treatment with either hypoculoside (21 µM) or DMSO for 24 h.
Legends for Supplementary figures and tables
Figure S1 Analysis of hypoculoside by MS/MS
Collision-Induced dissociation (CID) MS/MS fragmentation spectra of hypoculoside (8) generated at energies of 10 eV, 20 eV and 40 eV are depicted in panels A, B and C […]
Figure S2 Hypoculoside has antifungal, antibacterial and mammalian cytotoxic […]
B. Saccharomyces cerevisiae cultures in duplicate were treated with hypoculoside at the indicated concentrations in YPD medium at 30 °C for 24 hours. Growth of the yeast cultures as measured by OD600 nm is plotted against hypoculoside concentration. […]

[2] = Mammalian cell cytotoxicity assay (PrestoBlue cell viability, 72 hours); assay type: cell-based; conditions: human, A549, MIA PaCa-2, PANC-1, one range for the lines, read-out: cytotoxicity IC50 against human lung and pancreatic carcinoma cell lines
Method: Effect of hypoculoside on the growth of three bacterial strains Staphylococcus aureus (ATCC 25923), Pseudomonas aeruginosa (ATCC 9027) and Klebsiella aerogenes (ATCC 13048) was assessed as previously described. Cytotoxicity of hypoculoside on the A549 human lung cell line and the pancreatic carcinoma cell lines MIA PaCa-2 and PANC-1 was determined as described before. A549 and MIA PaCa-2 were seeded at 1,500 cells per well, and PANC-1 cells were seeded at 2,500 cells per well in a 384-well microplate. Cells were treated with hypoculoside at various concentrations and incubated for 72 hours at 37 °C in the presence of 5% CO2. Cytotoxic effect of hypoculoside was measured using the PrestoBlue™ cell viability reagent (Life Technologies). Following incubation of the microplates with the dye for 2 hours, the fluorescence reading (Excitation/Emission: 560 nm/590 nm) was recorded using the Tecan Infinite M1000 Pro reader.

[3] = tested on: Wild type strain (BY4743); assay: Rescue of myriocin-induced growth inhibition in yeast; assay type: cell-based, Saccharomyces cerevisiae
Method: Myriocin is an inhibitor of Serine palmitoyltransferase (SPT), which catalyzes the first step in the synthesis of sphingolipid biosynthesis. Addition of PHS or DHS can rescue inhibition caused by myriocin[28]. We tested whether hypoculoside can rescue the toxicity of myriocin–treated cells.
Wild type strain (BY4743) was grown in YPD medium containing different concentrations of myriocin and either phytosphingosine (PHS) or dihydrosphingosine (DHS) or hypoculoside (HYP) at the indicated concentrations. Normalized growth at the different concentrations after 24 hours of incubation at 30 °C is plotted for the various cultures.

[4] = tested on: Candida albicans strain SC5314; assay: Broth microdilution growth inhibition of Candida albicans (CLSI guidelines, OD600 after 24 h); assay type: cell-based; conditions: strain SC5314, OD600 nm after 24 hours, read-out: IC50 for inhibition of growth of C. albicans cells
Method: Figure 2 Hypoculoside has antifungal activity. (A) Workflow used in the purification and analysis of hypoculoside from Acremonium sp. F2434. (B) Structure of hypoculoside (8) and its aglycone derivative hypoculine (9). (C) Logarithmically growing Candida albicans cells were exposed to hypoculoside and amphotericin B at various concentrations in triplicates in a 96-well microplate. Growth of the cells was quantified by recording the absorbance at 600 nm after 24 hours. Growth (normalized with respect to DMSO-treated cells) is plotted against log of concentration of the compound. A picture of the microplate after 24 hours of incubation at 30 °C is shown in Supplementary Fig. S2A. (D) Effect of hypoculoside on the growth of Saccharomyces cerevisiae cells grown in YPD medium was analyzed in the similar way as for Candida albicans described above in C.
We evaluated the potency of hypoculoside by examining its effect on the growth of Candida albicans strain (SC5314) using the Clinical and Laboratory Standards Institute (CLSI) guidelines. We used the well-known antifungal amphotericin B as a positive control. We exposed logarithmically growing Candida albicans cells to hypoculoside and amphotericin B at various concentrations and monitored the growth by recording the OD600 nm after 24 hours. […]

CC(N)C(O)CCCCCCCCCCCCCCCCCCC(O)C(C)OC1OC(CO)C(O)C(O)C1O (centres unmarked) [hypoculoside, Hypoculoside]
cytocidal or cytostatic activity (ability to recover following treatment) [1]: cytocidal activity | IC50 at 72 h [2]: 9 to 14 µM | rescue of myriocin-induced inhibition ([3]; hypoculoside at the concentrations of Fig. 6): did not rescue | combined effect with myriocin on growth ([3]; total effect = sum of individual effects): additive effect | IC50 [4]: 7.6 µM

— PMC6345779, “Hypoculoside, a sphingoid base-like compound from Acremonium disrupts the membrane integrity of yeast cells” (Scientific Reports, 2019)
